Experimental data: publication PMC9604400, “Synthesis, Anticancer and Antitubercular Properties of New Chalcones and Their Nitrogen-Containing Five-Membered Heterocyclic Hybrids Bearing Sulfonamide Moiety” (International Journal of Molecular Sciences, 2022)

How the values were obtained:
SN12C = experiment: NCI-60 screen (SRB), renal cancer; conditions: Homo sapiens; for CC50: read-out: LC50
MCF7 = experiment: NCI-60 screen (SRB), breast cancer; conditions: Homo sapiens; for IC50: MCF7; for CC50: MCF7, read-out: LC50
NCI-H460 = experiment: NCI-60 screen (SRB), non-small cell lung cancer; conditions: for IC50 / CC50: Homo sapiens; for IC50: NCI-H460; for CC50: NCI-H460, read-out: LC50
OVCAR-8 = experiment: NCI-60 screen (SRB), ovarian cancer; conditions: Homo sapiens; for IC50: OVCAR-8; for CC50: OVCAR-8, read-out: LC50
M14 = experiment: NCI-60 screen (SRB), melanoma; conditions: Homo sapiens; for IC50: M14; for CC50: M14, read-out: LC50
breast cancer cell lines = experiment: NCI-60 screen (SRB), breast cancer panel; format: cell-based; conditions: Homo sapiens, single dose 10 μM, read-out: GI (growth inhibition), range over panel
SW-620 = experiment: NCI-60 screen (SRB), colon cancer; conditions: for IC50 / CC50: Homo sapiens; for IC50: SW-620; for CC50: SW-620, read-out: LC50
A498 = experiment: NCI-60 screen (SRB), renal cancer; conditions: Homo sapiens; for IC50: A498; for CC50: A498, read-out: LC50
UACC-62 = experiment: NCI-60 screen (SRB), melanoma; conditions: Homo sapiens; for IC50: UACC-62; for CC50: UACC-62, read-out: LC50
COLO 205 = experiment: NCI-60 screen (SRB), colon cancer; conditions: for IC50 / CC50: Homo sapiens; for IC50: COLO 205; for CC50: COLO 205, read-out: LC50; for lethality: COLO 205, single dose 10 μM
HT29 = experiment: NCI-60 screen (SRB), colon cancer; conditions: Homo sapiens; for IC50: HT-29; for CC50: HT-29, read-out: LC50
HS 578T = experiment: NCI-60 screen (SRB), breast cancer; conditions: for IC50 / CC50: Homo sapiens, Hs-578T; for CC50: read-out: LC50
SF-268 = experiment: NCI-60 screen (SRB), CNS cancer; conditions: Homo sapiens; for IC50: SF-268; for CC50: SF-268, read-out: LC50
LOX IMVI = experiment: NCI-60 screen (SRB), melanoma; conditions: for IC50 / CC50: Homo sapiens; for CC50: read-out: LC50; for lethality: single dose 10 μM
HOP-92 = experiment: NCI-60 screen (SRB), non-small cell lung cancer; conditions: Homo sapiens; for IC50: HOP-92; for CC50: HOP-92, read-out: LC50
colon cancer cell lines = experiment: NCI-60 screen (SRB), colon cancer panel; format: cell-based; conditions: Homo sapiens, single dose 10 μM, read-out: GI (growth inhibition), range over panel
T-47D = experiment: NCI-60 screen (SRB), breast cancer; conditions: Homo sapiens, T47D; for CC50: read-out: LC50
TK-10 = experiment: NCI-60 screen (SRB), renal cancer; conditions: Homo sapiens; for IC50: TK-10; for CC50: TK-10, read-out: LC50
NCI-H322M = experiment: NCI-60 screen (SRB), non-small cell lung cancer; format: cell-based; conditions: Homo sapiens; for IC50: five-dose screen; for CC50: read-out: LC50
Protocol: All compounds selected by the US National Cancer Institute (NCI) were initially tested at a single dose (10^−5 M) on the full panel of 60 cancer cell lines represented by leukemia, melanoma, lung, colon, central nervous system (CNS), ovarian, kidney, prostate and breast cancer. Only compounds that were able to satisfy the predetermined inhibition criteria against a minimum number of cell lines proceeded to five-dose assays ([…], 0.1 and 0.01 μM).
In these studies, human cancer cell lines were cultured in a RPMI-1640 medium containing 5% fetal bovine serum and 2 mM of L-glutamine. Following the protocol for a typical assay, cells were inoculated into 96-well plates and incubated at 37 °C, 5% CO2, 95% air, and 100% relative humidity for 24 h prior to the addition of the compounds to be tested. After 24 h, two plates of each cell line were fixed in situ with trichloroacetic acid (TCA) to represent a measure of the cell population for each cell line at the time of sample addition (Tz). Compounds were dissolved in DMSO to 400-fold the maximum desired concentration for analysis and subsequently diluted to twice the maximum desired concentration with medium containing 50 μg/mL gentamicin. An additional series of four dilutions at 10-fold concentration was performed to provide a total of five concentrations of the compound plus the control. Aliquots of 100 μL of these dilutions were taken and added to 96-well plates already containing 100 μL of the medium, resulting in the final required concentrations of the sample. The plates were incubated for 48 h at the same conditions. For adherent cells, the assay was terminated with the addition of cold TCA. Cells were fixed in situ by the slow addition of 50 μL of 50% (w/v) cold ATC (final concentration, 10% TCA) and incubated for 60 min at 4 °C. The supernatant was discarded, and the plates were washed five times with tap water and air dried. A quantity of 100 μL of 0.4% (w/v) sulforhodamine B (SRB) solution in 1% acetic acid was added to each well, and each plate was incubated for 10 min at room temperature. Upon completion of staining, unbound pigment was removed by five washes with 1% acetic acid and the plates were air-dried. The stains were solubilized with 10 mM Trizma base and absorbance was recorded on an automated plate reader at a wavelength of 515 nm. Using the absorbance measurements [time zero (Tz), growth control in the absence of the sample and growth test in the presence of the sample at the five concentration levels (Ti)], the percent growth was calculated for each sample at the concentration levels. The percent growth was calculated as: [(Ti − Tz)/(C − Tz)] × 100 for concentrations for which Ti > Tz, and [(Ti − Tz)/Tz] × 100 for concentrations for which Ti < Tz. Two dose-response parameters were calculated for each compound. The 50% growth inhibition (GI50) was calculated from [(Ti − Tz)/(C − Tz)] × 100 = 50, which is the sample concentration at which the net increase in protein is 50% lower in treated cells (as measured by SRB staining) compared to the net increase in protein seen in control cells and the LC50 (sample concentration at which a 50% reduction in protein measured at the end of treatment compared to the beginning), indicating a net loss of cells; calculated from [(Ti − Tz)/Tz] × 100 = −50. Values were calculated for each of these two parameters if the activity level was reached; however, if the effect was not reached or was exceeded, the value for that parameter was expressed as greater or less than the maximum or minimum of the concentration tested.

| Structure (SMILES) | IC50 (SN12C) [µM] | CC50 (SN12C) [µM] | IC50 (MCF7) [µM] | CC50 (MCF7) [µM] | IC50 (NCI-H460) [µM] | CC50 (NCI-H460) [µM] | IC50 (OVCAR-8) [µM] | CC50 (OVCAR-8) [µM] | IC50 (M14) [µM] | CC50 (M14) [µM] | IC50 (SW-620) [µM] | CC50 (SW-620) [µM] | IC50 (A498) [µM] | CC50 (A498) [µM] | IC50 (UACC-62) [µM] | CC50 (UACC-62) [µM] | IC50 (COLO 205) [µM] | CC50 (COLO 205) [µM] | IC50 (HT29) [µM] | CC50 (HT29) [µM] | other results |
| --- | --- | --- | --- | --- | --- | --- | --- | --- | --- | --- | --- | --- | --- | --- | --- | --- | --- | --- | --- | --- | --- |
| COc1cc(OC)c(S(N)(=O)=O)cc1C(=O)C=Cc1ccccc1 [Compound 17a, 5-Cinnamoyl-2,4-dimethoxybenzenesulfonamide] | 3.49 | 43.8 | 0.97 | 62.5 | 1.95 | 51.2 | 11.3 | 51.3 | 7.51 | 60.5 | 2.68 | 48.5 | 16.9 | 55.8 | 12.2 | 59.4 | 10.6 | 54.2 | 4.02 | 42.5 | inhibition at 10 µM (breast cancer cell lines): 73.5 to 100%; IC50 (HS 578T): 5.89 µM; CC50 (HS 578T): > 100 µM; IC50 (SF-268): 5.88 µM; CC50 (SF-268): 62.7 µM; IC50 (LOX IMVI): 0.34 µM; CC50 (LOX IMVI): 41.4 µM; IC50 (HOP-92): 2.06 µM; CC50 (HOP-92): 37.1 µM; inhibition at 10 µM (colon cancer cell lines): 72.5 to 96.2%; IC50 (T-47D): 2.09 µM; CC50 (T-47D): 51.6 µM; IC50 (TK-10): 12.9 µM; CC50 (TK-10): 51.5 µM; IC50 (NCI-H322M): 10.7 µM; CC50 (NCI-H322M): 47.6 µM |
| COc1cc(OC)c(S(N)(=O)=O)cc1C(=O)/C=C/c1ccc(Cl)cc1 [Compound 17b, (E)-5-(3-(4-Chlorophenyl)acryloyl)-2,4-dimethoxybenzenesulfonamide] | 2.48 | 60.2 | 4.11 | 40.3 | 2.84 | > 100 | 3.01 | > 100 | 1.47 | 6.7 | 2.49 | 95.9 | 18.6 | 62.2 | 2.67 | 40.8 | 1.66 | 5.88 | 2.18 | 9.97 | inhibition at 10 µM (breast cancer cell lines): 73.9 to 100%; lethality (SW-620; SW-620, single dose 10 μM): 39.92%; lethality (COLO 205): 30.00%; IC50 (HS 578T): > 100 µM; CC50 (HS 578T): > 100 µM; IC50 (SF-268): 3.75 µM; CC50 (SF-268): > 100 µM; IC50 (LOX IMVI): 0.73 µM; CC50 (LOX IMVI): 7.03 µM; lethality (LOX IMVI): 50.40%; IC50 (HOP-92): 1.46 µM; CC50 (HOP-92): 24.9 µM; inhibition at 10 µM (colon cancer cell lines): 92.2 to 100%; IC50 (T-47D): 12.4 µM; CC50 (T-47D): 64.6 µM; IC50 (TK-10): 2.91 µM; CC50 (TK-10): 33.4 µM; IC50 (NCI-H322M): 2.31 µM; CC50 (NCI-H322M): 38.7 µM |
| COc1cc(OC)c(S(N)(=O)=O)cc1C(=O)/C=C/c1ccc(C)cc1 [Compound 17c, (E)-2,4-Dimethoxy-5-(3-(p-tolyl)acryloyl)benzenesulfonamide] | 2.95 | 38.8 | 2.48 | 54.1 | 2.24 | 44.3 | 2.17 | 15.8 | 3.25 | 56 | 3.43 | 75.8 | 16.2 | 58.1 | 3.63 | 46.2 | 3.33 | 41.7 | 3.5 | 64.7 | lethality (NCI-H460; NCI-H460, single dose 10 μM): 3.51%; inhibition at 10 µM (breast cancer cell lines): 78.7 to 100%; IC50 (HS 578T): 3.5 µM; CC50 (HS 578T): > 100 µM; IC50 (SF-268): 3.2 µM; CC50 (SF-268): > 100 µM; IC50 (LOX IMVI): 0.54 µM; CC50 (LOX IMVI): 76.2 µM; IC50 (HOP-92): 2.3 µM; CC50 (HOP-92): 35.4 µM; inhibition at 10 µM (colon cancer cell lines): 83 to 100%; IC50 (T-47D): 2.32 µM; CC50 (T-47D): 44.8 µM; IC50 (TK-10): 3.41 µM; CC50 (TK-10): 39.6 µM; IC50 (NCI-H322M): 2.87 µM; CC50 (NCI-H322M): 34.7 µM |
| COc1cc(OC)c(S(=O)(=O)N(CCCl)CCCl)cc1C(=O)/C=C/c1cc(OC)c(OC)c(OC)c1 [Compound 18e, (E)-N,N-bis(2-Chloroethyl)-2,4-dimethoxy-5-(3-(3,4,5-trimethoxyphenyl)acryloyl)benzenesulfonamide] | 13 | > 100 | 4.36 | 35.5 | 1.95 | > 100 | > 100 | > 100 | 5.45 | > 100 | 25.1 | > 100 | 7.23 | 65.5 | 4.94 | > 100 | 4.46 | 8.39 | 5.92 | > 100 | lethality (COLO 205): 89.76%; GI% (HS 578T; HS 578T, single dose 10 μM): 21.70%; IC50 (HS 578T): > 100 µM; CC50 (HS 578T): > 100 µM; IC50 (SF-268): 7.7 µM; CC50 (SF-268): > 100 µM; IC50 (LOX IMVI): 2.89 µM; CC50 (LOX IMVI): 5.79 µM; lethality (LOX IMVI): 84.53%; IC50 (HOP-92): > 100 µM; CC50 (HOP-92): > 100 µM; IC50 (T-47D): > 100 µM; CC50 (T-47D): > 100 µM; IC50 (TK-10): 75 µM; CC50 (TK-10): > 100 µM; IC50 (NCI-H322M): 3 µM; CC50 (NCI-H322M): > 100 µM |
